Structures can show the parent of a compound that is named as a salt. Where two headings read alike, the source gives them in different places. Each block holds one compound with its values, some of them ahead of it.
What was measured:
Yoshida's Tumor = test: Inhibition of incorporation of labelled substrates in Yoshida's tumor; type: cell-based; settings: Rattus norvegicus, (U-14C) amino acid mixture, Table VI, read-out: IC50 (concentration lowering initial rate of 14C incorporation to 50% of control)
From the text: Tumor growth may be observed clinically or in experiments in vivo, that is, with experimental animals, or in vitro, for example, in tissue cultures prepared from tumors. Assessment of tumor growth may be effected by measuring the weight of the tumor mass or, more effectively, by measuring the radioactivity after incorporation therein of certain substances of natural origin such as amino acids, adenine, thymidine and the like labelled with radioactive atoms such as ^14 C, ^3 H, etc.
Thus, by way of exemplification, the IC^50 values (inhibitory concentration which lowered the initial rate of ^14 C incorporation to 50% of control) are shown in Table VI, below (Yoshida's Tumor, (U-^14 C) amino acid mixture)
The ^IC 50 values of compound 13468 are also shown in Table VII with varying substrates.

[1] = test system: Ehrlich's ascitic carcinoma; test: Incorporation of 14C-adenine and 14C-valine into cellular fraction of Ehrlich's ascitic carcinoma in vitro; type: cell-based, mouse; settings: for Radioactivity incorporation, adenine: control 1060 cpm; for Radioactivity incorporation, valine: control 2455 cpm; for activity at 75 µM / activity at 150 µM / activity at 300 µM / activity at 600 µM / IC50 / activity at 37.5 µM: Mus musculus, Ehrlich; for IC50: in vitro
From the text: In Table 4, the effect of Tiloron (NSC 143969; 2,7-bis-[2-(diethylamino)ethoxy]fluorene-9-one) and 5-(2-dimethylaminoethoxy)-7-oxo-7H-benzo(c) fluorene hydrochloride are compared on incorporation of ^14 C-adenine and ^14 C-valine with the cellular fraction of Ehrlich's ascitic carcinoma (insoluble in trichloacetic acid). The tests in vitro reveal that the composition of the invention was more than 10 times as effective as Tiloron. The inhibition of incorporation of adenine and valine into the used system of tumor cells is considered as an indication of an anti-tumorous, cytostatic action. This biological activity of the described compound is considerably greater than that of its congener Tiloron. (See also Table 4.)
Effects of Tiloron and substance 13468 on incorporation of ^14
C-adenine and ^14 C-valine
into cellular fraction of Ehrlichs ascitic carcinoma, insoluble in
in vitro. Radioactivity incorporation expressed in cpm.
IC50 = concentration inhibiting incorporation by 50 percent.

La leukaemia = test: Effect on course of transplanted La leukaemia in mice; type: in vivo, mouse (C57 Bl)
From the text: (§1) The therapeutic effect of the described compounds on transplanted tumors in experimental animals is shown in Tables 1-3, on the following five pages.
(§2) &=statistically significant differences versus control at P=0.05
La: La leukaemia in mice C57 Bl

Acute toxicity in mice = settings: mouse, in vivo, sc; subcutaneously; mice S, males 22-24 gram
From the text: The anti-tumor compounds described herein have also been studied from the standpoint of toxicity and the conclusion drawn that they are not toxic to mammalian hosts. The toxicological data set forth in Table IX, below, supports this conclusion.

L1210 leukaemia = test: Effect on course of transplanted L1210 leukaemia in mice; type: in vivo, mouse (hybrid DBA/H)
From the text: as §1, §2
L1210 : Leukaemia growing in the form of ascitic tumors in hybrid DBA/H mice

Yoshida's ascitic tumor = test: Effect on course of transplanted Yoshida's ascitic tumor in rats; type: in vivo, rat (Wistar); settings: for % of animals surviving day 35 after transplantation: control K = 0%
From the text: as §1, §2
Y: Yoshida's ascitic tumor in Wistar rats

[2] = test system: EST: Ehrlich's solid tumor; test: Effect on course of transplanted Ehrlich's solid tumor in mice; type: in vivo, mouse (H); settings: days 5,7,9,12; for Relative tumour size (% of control value): assessed day 14
From the text: as §1, §2
EST: Ehrlich's solid tumor in H mice

[3] = test system: Kr2: Krebs' ascitic tumor; test: Effect on course of transplanted Krebs' ascitic tumor in mice; type: in vivo, mouse (H); settings: p.o. 2×150 mg/kg, days 1,8, significant (&)
From the text: as §1, §2
Kr2 : Krebs' ascitic tumor in H mice

[4] = test system: HK: solid tumors, originally spontaneous mammary-gland adenocarcinoma; test: Effect on course of transplanted HK solid mammary-gland adenocarcinoma in mice; type: in vivo, mouse (H); settings: for Relative tumour size (% of control value): assessed day 14
From the text: as §1, §2
HK: Solid tumors, originally spontaneous mammary-gland adenocarcinoma in H mice

Sa37 ascitic tumor = test: Effect on course of transplanted Sa37 ascitic tumor in mice; type: in vivo, mouse (H); settings: p.o. 3×75 mg/kg, days 1,4,7
From the text: as §1, §2
Sa37 : Ascitic tumors in H mice

[5] = o. (oral) 3×50 mg/kg, days 1,4,8, significant (&)
[6] = o. (oral) 3×75 mg/kg, days 1,4,8, significant (&)
[7] = o. (oral) 5×100 mg/kg, days 1-5, Tables I and II, significant (&)
[8] = s.c. 5×50 mg/kg, days 1-5, Tables I and II, significant (&)
[9] = p.o. 4×100 mg/kg, significant (&)
[10] = p.o. 2×150 mg/kg, days 5,12, significant (&)
[11] = p.o. 4×100 mg/kg, days 5,7,9,12, significant (&)

- IC50 (Yoshida's Tumor): 154 µM
- IC50 ([1]; 14C-adenine, read-out: IC50 (concentration inhibiting incorporation by 50 percent), adenine): 600 µM
- IC50 ([1]; 14C-valine, read-out: IC50 (concentration inhibiting incorporation by 50 percent), valine): 600 µM
Compound: CCN(CC)CCOc1ccc2c(c1)C(=O)c1cc(OCCN(CC)CC)ccc1-2 [Tiloron, 2,7-bis-[2-(diethylamino)ethoxy]fluorene-9-one]
- Radioactivity incorporation, adenine ([1]; 75 μM): 1252 cpm
- Radioactivity incorporation, valine ([1]; 75 μM): 2374 cpm
- Radioactivity incorporation, adenine ([1]; 150 μM): 1096 cpm
- Radioactivity incorporation, valine ([1]; 150 μM): 2247 cpm
- Radioactivity incorporation, adenine ([1]; 300 μM): 979 cpm
- Radioactivity incorporation, valine ([1]; 300 μM): 2443 cpm
- Radioactivity incorporation, adenine ([1]; 600 μM): 563 cpm
- Radioactivity incorporation, valine ([1]; 600 μM): 1944 cpm
- Radioactivity incorporation, adenine ([1]; 37,5 μM): 1160 cpm
- Radioactivity incorporation, valine ([1]; 37,5 μM): 2395 cpm
- activity at 75 µM ([1]; 75 μM, read-out: Incorporation of adenine relative to control (0 μM = 100%)): 118%
- activity at 75 µM ([1]; 75 μM, read-out: Incorporation of valine relative to control (0 μM = 100%)): 97%
- activity at 150 µM ([1]; 150 μM, read-out: Incorporation of adenine relative to control (0 μM = 100%)): 103%
- activity at 150 µM ([1]; 150 μM, read-out: Incorporation of valine relative to control (0 μM = 100%)): 92%
- activity at 300 µM ([1]; 300 μM, read-out: Incorporation of adenine relative to control (0 μM = 100%)): 92%
- activity at 300 µM ([1]; 300 μM, read-out: Incorporation of valine relative to control (0 μM = 100%)): 100%
- activity at 600 µM ([1]; 600 μM, read-out: Incorporation of adenine relative to control (0 μM = 100%)): 53%
- activity at 600 µM ([1]; 600 μM, read-out: Incorporation of valine relative to control (0 μM = 100%)): 79%
- activity at 37.5 µM ([1]; 37,5 μM, read-out: Incorporation of adenine relative to control (0 μM = 100%)): 109%
- activity at 37.5 µM ([1]; 37,5 μM, read-out: Incorporation of valine relative to control (0 μM = 100%)): 98%

Compound: CN(C)CCCOc1cc2c(c3ccccc13)-c1ccccc1C2=O.Cl [compound 13466, 5-(3-Dimethylaminopropoxy)-7-oxo-7H-benzo(c) fluorene hydrochloride]
- Survival time of animals with respect to median (La leukaemia; s.c. 1×200 mg/kg, day 3 after transplantation, significant vs control (&, P=0.05)): 113%
- Survival time of animals with respect to median (La leukaemia; s.c. 1×250 mg/kg, day 3, significant (&)): 500%
- LD50 (Acute toxicity in mice): 320 mg/kg
- Survival time of animals with respect to median (L1210 leukaemia; s.c. 6×50 mg/kg, days 1;5;8;12;15;19, significant (&)): 117%
- Survival time of animals with respect to median (L1210 leukaemia; s.c. 6×75 mg/kg, days 1;5;8;12;15;19, significant (&)): 142%
- Survival time of animals with respect to median (L1210 leukaemia; s.c. 6×100 mg/kg, days 1;5;8;12;15;19, significant (&)): 142%
- Survival time of animals with respect to median (L1210 leukaemia; s.c. 6×125 mg/kg, days 1;5;8;12;15;19, marked ^): 168%
- % of animals surviving day 35 after transplantation (Yoshida's ascitic tumor; [5]): 50%
- Survival time of animals with respect to geom. mean (Yoshida's ascitic tumor; [5]): 152%
- % of animals surviving day 35 after transplantation (Yoshida's ascitic tumor; [6]): 40%
- Survival time of animals with respect to geom. mean (Yoshida's ascitic tumor; [6]): 140%
- Survival time of animals with respect to geom. mean (Yoshida's ascitic tumor; o. (oral) 5×100 mg/kg, days 1-5, Table III, significant (&)): 135%
- Survival time of animals with respect to geom. mean (Yoshida's ascitic tumor; [7]): 135%
- Survival time of animals with respect to geom. mean (Yoshida's ascitic tumor; s.c. 5×50 mg/kg, days 1-5, Table III, marked ^): 103%
- Survival time of animals with respect to geom. mean (Yoshida's ascitic tumor; [8]): 177%
- Relative tumour size (% of control value) ([2]; p.o. 4×50 mg/kg, marked ^): 77%
- Survival time of animals with respect to geom. mean ([2]; p.o. 4×50 mg/kg, significant (&)): 135%
- Relative tumour size (% of control value) [2, 9]: 70%
- Survival time of animals with respect to geom. mean [2, 9]: 134%
- IC50 (Yoshida's Tumor): 120 µM
- Relative tumour size (% of control value) ([3]; assessed day 10): 62%
- Survival time of animals with respect to geom. mean [3]: 128%
- Survival time of animals with respect to geom. mean ([4]; o. (oral) 8×50 mg/kg, days 5-10,12,13, Table I, significant (&)): 131%
- Relative tumour size (% of control value) ([4]; o. (oral) 8×50 mg/kg, days 5-10,12,13, Table I): 82%
- Relative tumour size (% of control value) ([4]; o. (oral) 8×100 mg/kg, days 5-10,12,13): 76%
- Survival time of animals with respect to geom. mean ([4]; o. (oral) 8×100 mg/kg, days 5-10,12,13, significant (&)): 112%
- Relative tumour size (% of control value) [4, 10]: 65%
- Survival time of animals with respect to geom. mean [4, 10]: 123%
- Relative tumour size (% of control value) [4, 11]: 48%
- Survival time of animals with respect to geom. mean [4, 11]: 125%
- Survival time of animals with respect to geom. mean ([4]; p.o. 8×50 mg/kg, days 5-10,12,13, Table III, marked ^): 102%
- Relative tumour size (% of control value) ([4]; p.o. 8×50 mg/kg, days 5-10,12,13, Table III, significant (&)): 73%
- Survival time of animals with respect to geom. mean ([4]; s.c. 8×50 mg/kg, days 5-10,12,13, Table I, significant (&)): 121%
- Survival time of animals with respect to geom. mean ([4]; s.c. 8×50 mg/kg, days 5-10,12,13, Table III, marked ^): 107%
- Relative tumour size (% of control value) ([4]; s.c. 8×50 mg/kg, days 5-10,12,13, Table I): 66%
- Relative tumour size (% of control value) ([4]; s.c. 8×50 mg/kg, days 5-10,12,13, Table III, significant (&)): 58%
- Relative tumour size (% of control value) (Sa37 ascitic tumor; assessed day 10, marked ^): 92%
- Survival time of animals with respect to geom. mean (Sa37 ascitic tumor; significant (&)): 123%

Compound: CN(C)CC(C)(C)COc1cc2c(c3ccccc13)-c1ccccc1C2=O [compound 13467, hydrochloride]
- Survival time of animals with respect to median (La leukaemia; s.c. 1×300 mg/kg, day 3, significant (&)): 186%
- LD50 (Acute toxicity in mice): 550 mg/kg
- Survival time of animals with respect to median (L1210 leukaemia; s.c. 1×250 mg/kg, day 1, significant (&)): 135%
- Survival time of animals with respect to geom. mean (Yoshida's ascitic tumor; [7]): 256%
- Survival time of animals with respect to geom. mean (Yoshida's ascitic tumor; [8]): 232%
- IC50 (Yoshida's Tumor): 101 µM
- Survival time of animals with respect to geom. mean ([4]; s.c. 8×25 mg/kg, days 5-10,12,13): 89%
- Relative tumour size (% of control value) ([4]; s.c. 8×25 mg/kg, days 5-10,12,13, significant (&)): 45%
